Columns and labels:
VCaP cells = assay: Cellular growth inhibition assay for VCaP cells, CellTiter-Glo; type: cell-based, human; settings: 72 hours treatment, CellTiter-Glo 2.0
Procedure, shortened: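 GI50 values come from four-parameter curve fits of luminescence data normalized to a zero baseline. Compound, in medium with 0.5% DMSO, was added one day after plating and left for 72 h before CellTiter-Glo 2.0 addition.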

[1] = tested on: T-Rex 293 cell line SC3 cells having increased expression of androgen receptor protein due to exposure to doxycycline; assay: Cellular growth inhibition, T-Rex 293 SC3 cells with doxycycline (androgen receptor induced), CellTiter-Glo; type: cell-based; settings: T-Rex 293 SC3 cells with 10 ng/mL doxycycline (increased androgen receptor expression)
Procedure, shortened: (§1)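 GI50 came from a four-parameter fit of CellTiter-Glo 2.0 luminescence after 72 h compound exposure (0.5% DMSO, 37 °C), dosing 24 h post-seeding. SC3 clone cells (2500/well), transfected with wild-type androgen receptor, grew in charcoal-stripped serum medium lacking phenol red, induced with 10 ng/mL doxycycline or left uninduced.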

[2] = tested on: T-Rex 293 cell line SC3 cells lacking increased expression of androgen receptor protein; assay: Cellular growth inhibition, T-Rex 293 SC3 cells without doxycycline, CellTiter-Glo; type: cell-based; settings: T-Rex 293 SC3 cells not exposed to doxycycline, CellTiter-Glo 2.0
Procedure, shortened: as §1

T47D cells = assay: Cellular growth inhibition assay for T47D cells, CellTiter-Glo; type: cell-based, human; settings: 72 hours treatment, CellTiter-Glo 2.0 cell viability
Procedure, shortened: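 Growth inhibition as GI50, fitted with four parameters to CellTiter-Glo luminescence after 72 h of compound exposure (0.5% DMSO). Cells were T47D, grown in insulin-supplemented (0.2 units/mL) DMEM with 10% FBS and treated one day post-seeding.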

Structure (SMILES) | GI50 (VCaP cells; Homo sapiens, VCaP, 72 h) [nM] | GI50 ([1]; 72 h) [nM] | GI50 ([2]; 72 h) [nM] | GI50 (T47D cells; Homo sapiens, T47D, 72 h) [nM] | GI50 ([2]; 72 hours) [nM] | GI50 (T47D cells) [nM] | GI50 (VCaP cells) [nM] | GI50 ([1]; 72 hours) [nM]
Cc1sc2c(c1C)C(c1ccc(C(=O)N3CCC[C@@H](C(=O)c4ncc(C(=O)N[C@H]5C(C)(C)[C@H](Oc6ccc(C#N)c(Cl)c6)C5(C)C)cn4)C3)cc1)=N[C@H](Cc1ncco1)c1nnc(C)n1-2 [Compound I-364] | > 3000 | < 500 | > 3000 | > 3000 |  |  |  | 
Cc1sc2c(c1C)C(c1ccc(CC[C@H]3C[C@]4(CCCN(c5ncc(C(=O)N[C@H]6C(C)(C)[C@H](Oc7ccc(C#N)c(Cl)c7)C6(C)C)cn5)C4)C3)cc1)=N[C@@H](Cc1ncco1)c1nnc(C)n1-2 [Compound I-239] | > 3000 | > 3000 | > 3000 | > 3000 |  |  |  | 
Cc1sc2c(c1C)C(c1ccc([C@H]3C[C@@H]([C@H]4CCN(c5ncc(C(=O)N[C@H]6C(C)(C)[C@H](Oc7ccc(C#N)c(Cl)c7)C6(C)C)cn5)C4)C3)cc1)=N[C@@H](Cc1ncco1)c1nnc(C)n1-2 [Compound I-415] | > 3000 | > 3000 | > 3000 | > 3000 |  |  |  | 
Cc1sc2c(c1C)C(c1ccc(C[C@H]3C[C@@H]([C@H]4CCCN(c5ncc(C(=O)N[C@H]6C(C)(C)[C@H](Oc7ccc(C#N)c(Cl)c7)C6(C)C)cn5)C4)C3)cc1)=N[C@@H](Cc1ncco1)c1nnc(C)n1-2 [Compound I-160] | > 3000 | > 3000 | > 3000 | 1500 to 3000 |  |  |  | 
Cc1sc2c(c1C)C(c1ccc(NC3CCCN(c4ncc(C(=O)N[C@H]5C(C)(C)[C@H](Oc6ccc(C#N)c(Cl)c6)C5(C)C)cn4)CC3)cc1)=NC(Cc1ncco1)c1nnc(C)n1-2 (some centres unmarked) [Compound I-640] | < 500 | < 500 | 500 to 1500 | < 500 |  |  |  | 
COCC[C@@H]1N=C(c2ccc(N3CC(C4CCN(c5ncc(C(=O)N[C@H]6C(C)(C)[C@H](Oc7ccc(C#N)c(Cl)c7)C6(C)C)cn5)CC4)C3)cc2)c2c(sc(C)c2C)-n2c(C)nnc21 [Compound I-610] | < 500 | < 500 | > 3000 | 1500 to 3000 |  |  |  | 
Cc1sc2c(c1C)C(c1ccc([C@@H]3CC[C@@]4(C3)CN(c3ncc(C(=O)N[C@H]5C(C)(C)[C@H](Oc6ccc(C#N)c(Cl)c6)C5(C)C)cn3)CCO4)cc1)=N[C@@H](Cc1ncco1)c1nnc(C)n1-2 [Compound I-406] | < 500 | < 500 | > 3000 | < 500 |  |  |  | 
Cc1sc2c(c1C)C(c1ccc(CC(C)(C)N3CC4(CCCN(c5ncc(C(=O)N[C@H]6C(C)(C)[C@H](Oc7ccc(C#N)c(Cl)c7)C6(C)C)cn5)C4)C3)cc1)=N[C@@H](Cc1ncco1)c1nnc(C)n1-2 [Compound I-429] | < 500 | < 500 | 1500 to 3000 | < 500 |  |  |  | 
Cc1sc2c(c1C)C(c1ccc(OC3CC4(CCN(c5ccc(C(=O)N[C@H]6C(C)(C)[C@H](Oc7ccc(C#N)c(Cl)c7)C6(C)C)cc5)CC4)C3)cc1)=N[C@@H](Cc1ncco1)c1nnc(C)n1-2 [Compound I-196] | 500 to 1500 | < 500 | > 3000 | < 500 |  |  |  | 
Cc1sc2c(c1C)C(c1ccc(N3CC(C4CCCN(c5ncc(C(=O)N[C@H]6C(C)(C)[C@H](Oc7ccc(C#N)c(Cl)c7)C6(C)C)cn5)C4)C3)cc1)=N[C@@H](C)c1nnc(C)n1-2 (some centres unmarked) [Compound I-473] | > 3000 | < 500 |  |  | > 3000 | > 3000 |  | 
Cc1sc2c(c1C)C(c1ccc(CCCN3CC4(C3)CN(c3ncc(C(=O)N[C@H]5C(C)(C)[C@H](Oc6ccc(C#N)c(Cl)c6)C5(C)C)cn3)C4)cc1)=N[C@@H](Cc1ncco1)c1nnc(C)n1-2 [Compound I-284] | < 500 | < 500 | 500 to 1500 | < 500 |  |  |  | 
COCC[C@@H]1N=C(c2ccc(OC3CC4(CCN(c5ncc(C(=O)N[C@H]6C(C)(C)[C@H](Oc7ccc(C#N)c(Cl)c7)C6(C)C)cn5)CC4)C3)cc2)c2c(sc(C)c2C)-n2c(C)nnc21 [Compound I-566] | < 500 | < 500 | > 3000 | > 3000 |  |  |  | 
CCNC(=O)C[C@@H]1N=C(c2ccc(CCN(C)c3ncc(C(=O)N[C@H]4C(C)(C)[C@H](Oc5ccc(C#N)c(Cl)c5)C4(C)C)cn3)cc2)c2c(sc(C)c2C)-n2c(C)nnc21 [Compound I-103] | 500 to 1500 | < 500 | 500 to 1500 | 500 to 1500 |  |  |  | 
Cc1sc2c(c1C)C(c1ccc(OC[C@H]3C[C@@]4(CCCN(c5ncc(C(=O)N[C@H]6C(C)(C)[C@H](Oc7ccc(C#N)c(Cl)c7)C6(C)C)cn5)C4)C3)cc1)=N[C@@H](C)c1nnc(C)n1-2 [Compound I-351] | < 500 | < 500 | > 3000 | > 3000 |  |  |  | 
CC[C@@H]1N=C(c2ccc(CC3CCC4(C3)CN(c3ncc(C(=O)N[C@H]5C(C)(C)[C@H](Oc6ccc(C#N)c(Cl)c6)C5(C)C)cn3)CCO4)cc2)c2c(sc(C)c2C)-n2c(C)nnc21 (some centres unmarked) [Compound I-613] |  |  |  |  | > 3000 | 500 to 1500 | < 500 | < 500
Cc1sc2c(c1C)C(c1ccc(N3CC(CC4CCN(c5cnc(C(=O)N[C@H]6C(C)(C)[C@H](Oc7ccc(C#N)c(Cl)c7)C6(C)C)cn5)CC4)C3)cc1)=N[C@@H](C)c1nnc(C)n1-2 [Compound I-450] | > 3000 | 500 to 1500 | > 3000 | < 500 |  |  |  | 
Cc1sc2c(c1C)C(c1ccc(C[C@H]3CC[C@@]4(C3)CN(c3ncc(C(=O)N[C@H]5C(C)(C)[C@H](Oc6ccc(C#N)c(Cl)c6)C5(C)C)cn3)CCO4)cc1)=N[C@@H](Cc1ncco1)c1nnc(C)n1-2 [Compound I-311] | < 500 | < 500 | < 500 | < 500 |  |  |  | 
Cc1sc2c(c1C)C(c1ccc(C#CC3CC4(C3)CN(c3ncc(C(=O)N[C@H]5C(C)(C)[C@H](Oc6ccc(C#N)c(Cl)c6)C5(C)C)cn3)C4)cc1)=N[C@@H](Cc1ncco1)c1nnc(C)n1-2 [Compound I-59] | < 500 | < 500 | < 500 | < 500 |  |  |  | 
Cc1sc2c(c1C)C(c1ccc(O[C@H]3CCC4(C3)CN(c3ncc(C(=O)N[C@H]5C(C)(C)[C@H](Oc6ccc(C#N)c(Cl)c6)C5(C)C)cn3)C4)cc1)=N[C@@H](Cc1ncco1)c1nnc(C)n1-2 [Compound I-180] | < 500 | < 500 | < 500 | < 500 |  |  |  | 
Cc1sc2c(c1C)C(c1ccc(C[C@H]3C[C@H]([C@H]4CCCN(c5ncc(C(=O)N[C@H]6C(C)(C)[C@H](Oc7ccc(C#N)c(Cl)c7)C6(C)C)cn5)C4)C3)cc1)=N[C@@H](Cc1ncco1)c1nnc(C)n1-2 [Compound I-159] | > 3000 | > 3000 | > 3000 | > 3000 |  |  |  | 
Cc1sc2c(c1C)C(c1ccc(OC3CC4(CCN(c5ncc(C(=O)N[C@H]6C(C)(C)[C@H](Oc7ccc(C#N)c(Cl)c7)C6(C)C)cn5)CC4)C3)cc1)=N[C@@H](C)c1nnc(C)n1-2 [Compound I-391] | 1500 to 3000 | < 500 | > 3000 | 500 to 1500 |  |  |  | 
Cc1sc2c(c1C)C(c1ccc(CC3CC4(C3)CN(c3ncc(C(=O)N[C@H]5C(C)(C)[C@H](Oc6ccc(C#N)c(Cl)c6)C5(C)C)cn3)C4)cc1)=N[C@@H](Cc1ncco1)c1nnc(C)n1-2 [Compound I-151] | < 500 | < 500 | < 500 | < 500 |  |  |  | 
Cc1sc2c(c1C)C(c1ccc(C3CC(C4CCN(c5ncc(C(=O)N[C@H]6C(C)(C)[C@H](Oc7ccc(C#N)c(Cl)c7)C6(C)C)cn5)CC4)C3)cc1)=NC(C)c1nnc(C)n1-2 (some centres unmarked) [Compound I-465] |  | < 500 | > 3000 | < 500 |  |  | < 500 | 
